Assay results from PMC12704298, “Divergent acetyl-CoA binding modes mediate allosteric inhibition of bacterial hybrid-type malic enzymes” (The Journal of Biological Chemistry, 2025).

Legend:
TME = tested on: TME; set-up: method as in PMID 10407149; settings: cited from earlier work
DME = tested on: DME; set-up: method as in PMID 10407149; settings: cited from earlier work
EcMaeB R482A = tested on: T1, EcMaeB R482A; experiment: %Activity assay with 5 μM acetyl-CoA; assay type: biochemical, Escherichia coli
T1 construct: His-tag (C); made in house; host or cells: E. coli BL21(DE3)
Method: (§1) Spectrophotometric assays were used to monitor the oxidative decarboxylation of L-malate to pyruvate using a SpectraMax M2, UV-Visible spectrophotometer (Molecular Devices) operated by SoftMax Pro Software with kinetic mode. All assays recorded the Δabsorbance at 340 nm (NADPH) at 30 °C. Assays were initiated by the addition of enzyme to the otherwise complete reaction mixture. […] Acetyl-CoA was tested at 5 μM. The results are presented as “%Activity”: a percentage of the measured activity in the presence of effector compared to the measured activity of MaeB under standard reaction conditions.

EcMaeB R475A/R482A = tested on: T2, EcMaeB R475A/R482A; experiment: %Activity assay with 5 μM acetyl-CoA; assay type: biochemical, Escherichia coli
T2 construct: His-tag (C); made in house; host or cells: E. coli BL21(DE3)
Method: as §1

EcMaeB R475A/Y510A = tested on: T3, EcMaeB R475A/Y510A; experiment: %Activity assay with 5 μM acetyl-CoA; assay type: biochemical, Escherichia coli
T3 construct: His-tag (C); made in house; host or cells: E. coli BL21(DE3)
Method: as §1

EcMaeB R482A/Y510A = tested on: T4, EcMaeB R482A/Y510A; experiment: %Activity assay with 5 μM acetyl-CoA; assay type: biochemical, Escherichia coli
T4 construct: His-tag (C); made in house; host or cells: E. coli BL21(DE3)
Method: as §1

EcMaeB Y510A = tested on: T5, EcMaeB Y510A; experiment: %Activity assay with 5 μM acetyl-CoA; assay type: biochemical, Escherichia coli
T5 construct: His-tag (C); made in house; host or cells: E. coli BL21(DE3)
Method: as §1

EcMaeB R475A/R482A/Y510A = tested on: T6, EcMaeB R475A/R482A/Y510A; experiment: %Activity assay with 5 μM acetyl-CoA; assay type: biochemical, Escherichia coli
T6 construct: His-tag (C); made in house; host or cells: E. coli BL21(DE3)
Method: as §1

EcMaeB R475A = tested on: T7, EcMaeB R475A; experiment: %Activity assay with 5 μM acetyl-CoA; assay type: biochemical, Escherichia coli
T7 construct: His-tag (C); made in house; host or cells: E. coli BL21(DE3)
Method: as §1

EcMaeB WT = tested on: T8, EcMaeB WT; experiment: %Activity assay with 5 μM acetyl-CoA; assay type: biochemical, Escherichia coli
T8 construct: His-tag (C); made in house; host or cells: E. coli BL21(DE3)
Method: as §1

EcMaeB [1] = molecular target: T9, EcMaeB (Escherichia coli, UniProt P76558); experiment: Acetyl-CoA IC50 plot against MaeB activity (spectrophotometric NADPH assay); assay type: biochemical
T9 construct: His-tag (C); made in house; host or cells: E. coli BL21(DE3)
T9 sequence (P76558 1-759): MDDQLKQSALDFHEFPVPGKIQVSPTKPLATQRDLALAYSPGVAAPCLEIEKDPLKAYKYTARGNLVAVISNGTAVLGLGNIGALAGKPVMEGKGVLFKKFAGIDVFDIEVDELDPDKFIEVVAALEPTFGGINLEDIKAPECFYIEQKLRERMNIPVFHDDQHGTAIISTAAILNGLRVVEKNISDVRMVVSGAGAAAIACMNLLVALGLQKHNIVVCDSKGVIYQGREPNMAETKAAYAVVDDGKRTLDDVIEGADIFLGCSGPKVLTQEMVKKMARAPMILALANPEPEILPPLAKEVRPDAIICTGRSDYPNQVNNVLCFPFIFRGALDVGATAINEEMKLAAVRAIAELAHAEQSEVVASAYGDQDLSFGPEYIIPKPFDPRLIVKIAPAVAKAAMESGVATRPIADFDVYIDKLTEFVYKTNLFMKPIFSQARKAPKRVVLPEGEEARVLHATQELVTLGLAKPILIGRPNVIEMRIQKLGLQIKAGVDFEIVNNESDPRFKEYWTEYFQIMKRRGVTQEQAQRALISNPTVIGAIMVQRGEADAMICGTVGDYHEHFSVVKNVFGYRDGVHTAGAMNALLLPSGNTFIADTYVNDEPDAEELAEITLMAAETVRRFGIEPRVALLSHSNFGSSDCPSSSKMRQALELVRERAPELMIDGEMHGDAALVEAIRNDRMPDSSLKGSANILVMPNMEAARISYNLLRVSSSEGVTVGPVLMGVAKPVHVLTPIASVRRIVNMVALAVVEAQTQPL
Method: (§2) Spectrophotometric assays were used to monitor the oxidative decarboxylation of L-malate to pyruvate using a SpectraMax M2, UV-Visible spectrophotometer (Molecular Devices) operated by SoftMax Pro Software with kinetic mode. All assays recorded the Δabsorbance at 340 nm (NADPH) at 30 °C. Assays were initiated by the addition of enzyme to the otherwise complete reaction mixture. […] Acetyl-CoA was tested at 5 μM.
(§3) The IC50 plot for Acetyl-CoA against MaeB activity was obtained by varying acetyl-CoA concentrations. The assay was performed in the standard reaction condition with 100 nM final enzyme concentration. The data were fitted to the four-parameter logistic model: v0=Bottom+Top−Bottom/1+([Acetyl-CoA]/IC50)^h where h means the Hill slope value and “Top” and “Bottom” corresponds to the maximum and minimum v0 of the fitted curve, respectively ([81]). Fitting was performed using Rstudio.

AbMaeB1 = tested on: AbMaeB1; set-up: method as in PMID 32485238; settings: AbMaeB1, compared to EcMaeB and BbMaeB; cited from earlier work
BbMaeB-HD = tested on: BbMaeB-HD; set-up: method as in PMID 33623032; settings: earlier study; cited from earlier work
BbMaeB-SSB = BbMaeB-SSB (Bdellovibrio bacteriovorus, UniProt A0A1Z3N8R4); experiment: Acetyl-CoA IC50 plot against MaeB activity (spectrophotometric NADPH assay); assay type: biochemical, Bdellovibrio bacteriovorus strain SSB218315
Method: as §2, §3

BbMaeB = molecular target: T10, BbMaeB (Bdellovibrio bacteriovorus, UniProt A0A1Z3N8R4); experiment: Enzyme kinetic parameters (Michaelis-Menten, substrate inhibition, empirical Hill plots); assay type: biochemical, Bdellovibrio bacteriovorus strain SSB218315; settings: versus malate
T10 sequence (A0A1Z3N8R4 1-776): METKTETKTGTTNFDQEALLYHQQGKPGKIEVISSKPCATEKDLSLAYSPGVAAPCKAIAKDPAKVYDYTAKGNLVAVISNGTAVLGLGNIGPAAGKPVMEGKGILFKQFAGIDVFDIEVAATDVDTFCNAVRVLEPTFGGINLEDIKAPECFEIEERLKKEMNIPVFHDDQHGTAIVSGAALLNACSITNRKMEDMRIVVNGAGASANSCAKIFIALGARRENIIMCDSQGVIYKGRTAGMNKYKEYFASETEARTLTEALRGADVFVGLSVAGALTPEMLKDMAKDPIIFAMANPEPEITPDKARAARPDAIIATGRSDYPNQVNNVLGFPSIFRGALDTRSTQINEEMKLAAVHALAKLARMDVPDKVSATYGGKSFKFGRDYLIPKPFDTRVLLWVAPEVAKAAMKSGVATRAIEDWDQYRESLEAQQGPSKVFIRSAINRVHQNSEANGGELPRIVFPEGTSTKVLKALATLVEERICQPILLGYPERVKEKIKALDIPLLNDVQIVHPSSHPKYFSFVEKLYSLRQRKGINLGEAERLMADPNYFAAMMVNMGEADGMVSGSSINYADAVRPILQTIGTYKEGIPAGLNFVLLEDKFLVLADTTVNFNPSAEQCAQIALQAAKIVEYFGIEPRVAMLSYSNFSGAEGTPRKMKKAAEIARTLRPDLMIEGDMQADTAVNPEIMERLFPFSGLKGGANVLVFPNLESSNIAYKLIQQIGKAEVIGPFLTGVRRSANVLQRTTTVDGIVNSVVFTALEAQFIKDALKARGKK
Method: as §2
(§4) For this substrate inhibition model, x should be fixed. […] The plots shown in Fig. S1F were fitted to the empirical Hill equation: v0=Vmax·[malate]^h/(K0.5h+[malate]^h) where K0.5 indicates the substrate concentration for half-saturation. When h is equal to 1, K0.5 matches Michaelis constant Km.

EcMaeB [2] = molecular target: T9, EcMaeB; experiment: as above; assay type: biochemical; settings: EcMaeB; versus malate, not conclusive
Method: as §2, §4

[3] = 5 mM L-malate, 0.5 mM NADP+, 1 μM enzyme
[4] = relative to WT without acetyl-CoA

Q: Which “allosteric regulation of TME” value (TME) does the source give for CC(=O)SCCNC(=O)CCNC(=O)[C@H](O)C(C)(C)COP(=O)(O)OP(=O)(O)OC[C@H]1O[C@@H](n2cnc3c(N)ncnc32)[C@H](O)[C@@H]1OP(=O)(O)O [acetyl-CoA, acetyl coenzyme A] here?
A: does not show any allosteric regulation

Q: And the “effect on DME activity” value (DME)?
A: inhibited

Q: What about the “effect of acetyl-CoA on activity” value (EcMaeB R482A) of the same molecule?
A: did not change their activity

Q: And the “NADP^+ production, With Acetyl-CoA” value (EcMaeB R482A; [3])?
A: 8.4 ± 1.4 µM/min

Q: And the “Activity (%), With Acetyl-CoA” value (EcMaeB R482A; [4])?
A: 32.3 ± 5.5%

Q: And the “effect of acetyl-CoA on activity” value (EcMaeB R475A/R482A)?
A: did not change their activity

Q: What about the “NADP^+ production, With Acetyl-CoA” value (EcMaeB R475A/R482A; [3]) of the same molecule?
A: 10.7 ± 0.5 µM/min

Q: What about the “Activity (%), With Acetyl-CoA” value (EcMaeB R475A/R482A; [4]) of the same molecule?
A: 40.8 ± 2.0%

Q: And the “NADP^+ production, With Acetyl-CoA” value (EcMaeB R475A/Y510A; [3])?
A: 31.9 ± 2.0 µM/min

Q: What about the “Activity (%), With Acetyl-CoA” value (EcMaeB R475A/Y510A; [4]) of the same molecule?
A: 121.9 ± 7.6%

Q: And the “effect of acetyl-CoA on activity” value (EcMaeB R482A/Y510A)?
A: did not change their activity

Q: What about the “NADP^+ production, With Acetyl-CoA” value (EcMaeB R482A/Y510A; [3]) of the same molecule?
A: 7.0 ± 0.1 µM/min

Q: And the “Activity (%), With Acetyl-CoA” value (EcMaeB R482A/Y510A; [4])?
A: 26.7 ± 0.5%

Q: What about the “effect of acetyl-CoA on activity” value (EcMaeB Y510A) of the same molecule?
A: insensitive to allosteric inhibition

Q: What about the “NADP^+ production, With Acetyl-CoA” value (EcMaeB Y510A; [3]) of the same molecule?
A: 19.4 ± 4.0 µM/min

Q: What about the “Activity (%), With Acetyl-CoA” value (EcMaeB Y510A; [4]) of the same molecule?
A: 74.0 ± 15.4%

Q: What about the “effect of acetyl-CoA on activity” value (EcMaeB R475A/R482A/Y510A) of the same molecule?
A: did not change their activity

Q: What about the “NADP^+ production, With Acetyl-CoA” value (EcMaeB R475A/R482A/Y510A; [3]) of the same molecule?
A: 10.3 ± 0.4 µM/min

Q: What about the “Activity (%), With Acetyl-CoA” value (EcMaeB R475A/R482A/Y510A; [4]) of the same molecule?
A: 39.5 ± 1.4%

Q: What about the “effect of acetyl-CoA on activity” value (EcMaeB R475A) of the same molecule?
A: insensitive to allosteric inhibition

Q: What about the “NADP^+ production, With Acetyl-CoA” value (EcMaeB R475A; [3]) of the same molecule?
A: 21.6 ± 3.7 µM/min

Q: And the “Activity (%), With Acetyl-CoA” value (EcMaeB R475A; [4])?
A: 82.4 ± 14.0%

Q: And the “effect of acetyl-CoA on activity” value (EcMaeB WT)?
A: reduced the activity by about half

Q: And the “NADP^+ production, With Acetyl-CoA” value (EcMaeB WT; [3])?
A: 12.1 ± 2.2 µM/min

Q: What about the “Activity (%), With Acetyl-CoA” value (EcMaeB WT; [4]) of the same molecule?
A: 46.4 ± 8.5%

Q: What about the “Hill slope factor derived from the IC50 curve” value (EcMaeB [1]) of the same molecule?
A: greater than one

Q: What about the IC50 (EcMaeB [1]; 5 mM L-malate, 0.5 mM NADP+, 5 mM MgCl2, 100 nM enzyme, 30 °C) of the same molecule?
A: 102000 ± 4920 nM

Q: And the “allosteric inhibition of AbMaeB1” value (AbMaeB1)?
A: requires higher concentrated acetyl-CoA to show allosteric inhibition

Q: What about the IC50 (BbMaeB-HD) of the same molecule?
A: 453 ± 19 nM

Q: What about the “Hill slope factor derived from the IC50 curve” value (BbMaeB-SSB; BbMaeB) of the same molecule?
A: greater than one

Q: And the IC50 (BbMaeB-SSB; BbMaeB-SSB, 5 mM L-malate, 0.5 mM NADP+, 5 mM MgCl2, 100 nM enzyme, 30 °C)?
A: 131 ± 4 nM

Q: And the mode of inhibition (BbMaeB)?
A: non-competitive

Q: And the mode of inhibition (EcMaeB [2])?
A: may follow a non-competitive mode
